Read-outs that look alike come from different tables or passages of the source.
Assays:
M1 muscarinic receptor = target: T1, M1 muscarinic receptor (Homo sapiens, UniProt P11229); assay: Functional mobilization of intracellular calcium (FLIPR) in M1-CHO cells; assay type: cell-based
T1 construct: expressed in transfected cells; host or cells: CHO (M1-CHO)
T1 sequence (P11229 1-460): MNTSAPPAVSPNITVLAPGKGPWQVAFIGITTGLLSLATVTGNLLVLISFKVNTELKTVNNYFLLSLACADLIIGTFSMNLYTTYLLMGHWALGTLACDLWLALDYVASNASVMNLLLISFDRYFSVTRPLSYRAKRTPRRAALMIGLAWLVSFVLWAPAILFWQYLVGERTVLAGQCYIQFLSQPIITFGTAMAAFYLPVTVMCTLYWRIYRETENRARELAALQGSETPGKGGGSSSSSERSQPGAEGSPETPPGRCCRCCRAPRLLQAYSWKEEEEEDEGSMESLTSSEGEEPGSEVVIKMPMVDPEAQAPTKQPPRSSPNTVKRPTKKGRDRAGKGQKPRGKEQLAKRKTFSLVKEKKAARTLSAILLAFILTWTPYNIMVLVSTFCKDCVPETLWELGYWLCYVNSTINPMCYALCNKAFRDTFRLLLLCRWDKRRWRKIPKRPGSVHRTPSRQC
Summary of the method: (§1)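 CHO cells stably expressing human M1 or M4 receptor were loaded with Fluo-3 AM (or Calcium 3 dye) in Hepes-buffered saline, pH 7.4, with 1 mM probenecid, 0.5% final DMSO. Agonist mode: compound added directly; antagonist mode: 15 min preincubation before carbachol at EC80. FLIPR fluorescence recorded 60 sec.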

M4 muscarinic receptor = target: T2, M4 muscarinic receptor (Homo sapiens, UniProt P08173); assay: Functional mobilization of intracellular calcium (FLIPR) in M4-CHO cells; assay type: cell-based
T2 construct: expressed in transfected cells; host or cells: CHO (M4-CHO)
T2 sequence (P08173 1-479): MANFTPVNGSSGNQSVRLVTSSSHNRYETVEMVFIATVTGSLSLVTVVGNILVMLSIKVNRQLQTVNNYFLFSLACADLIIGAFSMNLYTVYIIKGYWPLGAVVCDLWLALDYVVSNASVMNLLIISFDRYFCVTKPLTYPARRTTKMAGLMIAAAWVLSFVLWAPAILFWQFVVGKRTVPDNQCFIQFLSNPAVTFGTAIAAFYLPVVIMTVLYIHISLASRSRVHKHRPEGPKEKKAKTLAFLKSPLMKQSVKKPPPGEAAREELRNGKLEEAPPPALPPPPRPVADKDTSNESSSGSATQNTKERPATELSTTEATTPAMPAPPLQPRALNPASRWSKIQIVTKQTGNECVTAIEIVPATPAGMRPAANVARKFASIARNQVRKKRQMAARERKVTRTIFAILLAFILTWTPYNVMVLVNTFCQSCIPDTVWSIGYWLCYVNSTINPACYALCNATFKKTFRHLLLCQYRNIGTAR
Summary of the method: as §1

[1] = Table 4, 100% efficacy is the maximum response obtained with the Carbachol control
[2] = Table 4, modulating M1 receptor
[3] = Table 4, modulating M4 receptor
[4] = M1 receptor, calcium mobilization
[5] = M1 receptor, calcium mobilization, read-out: M1 Efficacy
[6] = M4 receptor, calcium mobilization
[7] = M4 receptor, calcium mobilization, read-out: M4 Efficacy

Row | Compound | Emax (M1 muscarinic receptor; [1]) [%] | M1 Activity (M1 muscarinic receptor; [2]) | Emax (M4 muscarinic receptor; [1]) [%] | M4 Activity (M4 muscarinic receptor; [3]) | M1 Activity (M1 muscarinic receptor; [4]) | Emax (M1 muscarinic receptor; [5]) [%] | M4 Activity (M4 muscarinic receptor; [6]) | Emax (M4 muscarinic receptor; [7]) [%] | further results
1 | O=C(O)C1CC2(CCN(C3CCCCCC3)CC2)c2ccccc21 (centres unmarked) [compound 488] | 25 to 100 | x (activity was measured to be greater than 5.0 μM) | 25 to 100 | x (activity was measured to be greater than 5.0 μM) | – | – | – | – | –
2 | CN(C)C(=O)N1CC2(CCN(C[C@@H]3CCN(c4cnccn4)C3)CC2)c2cc(F)ccc21 [compound 608] | 25 to 100 | xxx (activity was measured to be less than 2.0 μM) | 25 to 100 | xxx (activity was measured to be less than 2.0 μM) | – | – | – | – | –
3 | CC(=O)N1CC2(CCN(C3CCN(c4nc(C)cs4)CC3)CC2)c2ccccc21 [compound 471] | 25 to 100 | xx (activity was measured to be between 2.0 μM and 5.0 μM) | 25 to 100 | xx (activity was measured to be between 2.0 μM and 5.0 μM) | – | – | – | – | –
4 | CC(=O)N1CC2(CCN(C3CCN(c4ncc(C)s4)CC3)CC2)c2ccccc21 [compound 794] | < 25 | x (activity was measured to be greater than 5.0 μM) | < 25 | x (activity was measured to be greater than 5.0 μM) | – | – | – | – | –
5 | CCCN1CCC(N2CCC3(CC2)CN(C(C)=O)c2ccc(F)cc23)CC1 [compound 699] | < 25 | x (activity was measured to be greater than 5.0 μM) | < 25 | x (activity was measured to be greater than 5.0 μM) | – | – | – | – | –
6 | O=C(O[C@@H]1CCOC1)N1C2CCC1CC(N1CCC3(CC1)C(=O)Nc1ccccc13)C2 (some centres unmarked) [compound 336] | – | – | – | – | x (activity was measured to be greater than 1.0 μM) | < 65 | x (activity was measured to be greater than 1.0 μM) | < 65 | –
7 | COc1ccc(N2CCC(N3CCC4(CC3)CN(C(=O)N(C)C)c3ccc(F)cc34)CC2)nn1 [compound 760] | 25 to 100 | x (activity was measured to be greater than 5.0 μM) | 25 to 100 | xxx (activity was measured to be less than 2.0 μM) | – | – | – | – | –
8 | CN(C)C(=O)N1CC2(CCN(C3CCN(C(=O)O[C@@H]4CCOC4)CC3)CC2)c2cc(F)ccc21 [compound 209] | – | – | – | – | xx (activity was measured to be between 0.1 μM and 1.0 μM) | > 85 | x (activity was measured to be greater than 1.0 μM) | < 65 | –
9 | Fc1ccc2c(c1)C1(CCN(C[C@H]3C[C@H]4CC[C@H]3C4)CC1)CO2 [compound 207] | – | – | – | – | xx (activity was measured to be between 0.1 μM and 1.0 μM) | 65 to 85 | x (activity was measured to be greater than 1.0 μM) | < 65 | –
10 | CCOC(=O)N1CCC(N2CCC3(CC2)CN(C(C)=O)c2ccc(-c4ccc(C(F)(F)F)cc4)cc23)CC1 [compound 295] | – | – | – | – | xxx (activity was measured to be less than 0.1 μM) | 65 to 85 | xxx (activity was measured to be less than 0.1 μM) | 65 to 85 | –
11 | COCCOC(=O)N1C2CCC1CC(N1CCC3(CC1)CN(C(=O)C1CC1)c1ccc(F)cc13)C2 (centres unmarked) [compound 311] | – | – | – | – | xxx (activity was measured to be less than 0.1 μM) | 65 to 85 | x (activity was measured to be greater than 1.0 μM) | 65 to 85 | –
12 | CC(=O)N1CC2(CCN(C3CCN(C(=O)OC4CCOC4)CC3)CC2)c2ccccc21 (centres unmarked) [compound 932] | 25 to 100 | – | < 25 | – | – | – | – | – | M1 Activity (M1 muscarinic receptor; Table 4, M1 receptor, calcium mobilization (FLIPR)): x (activity was measured to be greater than 5.0 μM); M4 Activity (M4 muscarinic receptor; Table 4, M4 receptor, calcium mobilization (FLIPR)): x (activity was measured to be greater than 5.0 μM)
13 | CCOC(=O)N1CCC(N2CCC3(CC2)CN(C(=O)c2c(F)cccc2F)c2ccc(F)cc23)CC1 [compound 396] | – | – | – | – | – | – | – | – | EC50 (M1 muscarinic receptor; M1-CHO cells, calcium mobilization (FLIPR)): 100 to 1000 nM; Emax (M1 muscarinic receptor; M1-CHO cells, calcium mobilization (FLIPR), read-out: M1 Efficacy): < 65%; EC50 (M4 muscarinic receptor; M4-CHO cells, calcium mobilization (FLIPR)): > 1000 nM; Emax (M4 muscarinic receptor; M4-CHO cells, calcium mobilization (FLIPR), read-out: M4 Efficacy): < 65%
14 | CCOC(=O)N1CCC(CN2CCC3(CC2)CN(C(C)=O)c2ccc(Cl)cc23)CC1 [compound 256] | – | – | – | – | xx (activity was measured to be between 0.1 μM and 1.0 μM) | < 65 | xx (activity was measured to be between 0.1 μM and 1.0 μM) | < 65 | –
